Legend:
NSCLC = details: patients with ≥1% PD-L1 expression; cited from earlier work
[1] = tested on: stage IV or recurrent NSCLC; test: Phase 3 study of first-line nivolumab versus platinum-based chemotherapy: efficacy; type: in vivo, human
Description: The primary endpoint was progression-free survival (PFS) per blinded independent central review in patients with ≥5% PD-L1 expression.
Eligible adult patients had histologically confirmed squamous or nonsquamous stage IV/recurrent NSCLC, ECOG PS 0-1, and measurable disease per RECIST 1.1,^15 and had received no prior systemic anticancer therapy as primary therapy for advanced or metastatic disease. Patients with central nervous system metastases were eligible if adequately treated and neurologically returned to baseline ≥2 weeks before randomization. Eligible patients had to be off corticosteroids or on a stable or decreasing dose of ≤10 mg daily prednisone (or equivalent). […] Patients with an autoimmune disease or known EGFR mutations or ALK translocations sensitive to available targeted therapy were excluded. Only patients with ≥1% PD-L1 expression were randomized.
(§1) Maintenance pemetrexed was allowed in patients with nonsquamous NSCLC who had stable disease or response after cycle 4. […] Concomitant systemic corticosteroid treatment (<3-week courses) was allowed for non-autoimmune conditions, including but not limited to treatment-related adverse events (AEs) with a potential immunologic cause.
Randomization was stratified by PD-L1 expression (<5% vs. ≥5%) and tumor histology (squamous vs. nonsquamous).
The primary endpoint was PFS based on assessment by blinded independent central review (BICR) in patients with ≥5% PD-L1 expression. Secondary endpoints included PFS per BICR among all randomized patients (≥1% PD-L1 expression), OS among patients with ≥5% PD-L1 expression and among all randomized patients, and ORR per BICR among patients with ≥5% PD-L1 expression.
(§2) Tumor response was assessed every 6 weeks until week 48 and every 12 weeks thereafter. Safety assessments included the recording of AEs, graded according to the National Cancer Institute Common Terminology Criteria for Adverse Events, version 4.0.
For efficacy analyses, patients were grouped according to TMB tertile distribution.
Comparison of PFS and OS between treatment groups was performed by two-sided log-rank tests stratified by PD-L1 expression level (≥5% vs. <5%; for endpoints in all randomized patients) and tumor histology. A stratified Cox proportional-hazards model including the randomized treatment arm as a single covariate was used to estimate HRs and their associated 95% CIs. The Kaplan-Meier method was used to estimate survival curves. ORRs were compared between treatment arms with a two-sided, stratified Cochran-Mantel-Haenszel test. The Clopper-Pearson method was used to estimate ORRs and their exact 95% CIs.

[2] = Phase 3 study of first-line nivolumab versus platinum-based chemotherapy: safety (adverse events)
Method: as §1, §2

[3] = exploratory subgroup with ≥50% PD-L1 expression
[4] = patients with high TMB (upper tertile)
[5] = patients with ≥5% PD-L1 expression
[6] = ≥5% PD-L1 expression, responders

## Nivolumab
NSCLC
  ORR: 28%
[1]; TMB High
  Complete or partial response: 22 (46.8) n (%)
  Progressive disease: 7 (14.9) n (%)
  Response could not be determined: 3 (6.4) n (%)
  Stable disease: 15 (31.9) n (%)
[1]; TMB Low
  Complete or partial response: 11 (17.7) n (%)
  Progressive disease: 21 (33.9) n (%)
  Response could not be determined: 5 (8.1) n (%)
  Stable disease: 25 (40.3) n (%)
[1]; TMB Low/medium (pooled)
  Complete or partial response: 25 (22.5) n (%)
  Progressive disease: 32 (28.9) n (%)
  Response could not be determined: 9 (8.1) n (%)
  Stable disease: 45 (40.5) n (%)
[1]; TMB Medium
  Complete or partial response: 14 (28.6) n (%)
  Progressive disease: 11 (22.4) n (%)
  Response could not be determined: 4 (8.2) n (%)
  Stable disease: 20 (40.8) n (%)
[1]; [3]
  ORR: 34.1%
  OS hazard ratio, nivolumab versus chemotherapy: 0.90
  PFS hazard ratio, nivolumab versus chemotherapy: 1.07
[1]; patients with high TMB
  median PFS: 9.7 months
[1]; [4]
  PFS hazard ratio, nivolumab versus chemotherapy: 0.62
  objective response rate (ORR): 46.8%
[1]; [5]
  OS hazard ratio, nivolumab versus chemotherapy: 1.02
  Objective response, % of patients (95% CI): 26.1 (20.3-32.5) %
  Objective response, No. of patients: 55
  PFS hazard ratio, nivolumab versus chemotherapy: 1.15
  median OS: 14.4 months
  median PFS: 4.2 months
[1]; patients with ≥5% PD-L1 expression, listed as nivolumab
  Objective response, % of patients (95% CI): 26.1%
[1]; ≥5% PD-L1 expression
  Best overall response: Complete response: 4 (1.9) no. (%)
  Best overall response: Could not be determined: 17 (8.1) no. (%)
  Best overall response: Partial response: 51 (24.2) no. (%)
  Best overall response: Progressive disease: 58 (27.5) no. (%)
  Best overall response: Stable disease: 81 (38.4) no. (%)
  Proportion of patients with a best response of progressive disease: 27.5%
[1]; ≥5% PD-L1 expression, nivolumab versus chemotherapy
  Objective response, estimated odds ratio (95% CI): 0.70 (0.46-1.06)
[1]; [6]
  Duration of response, median: 12.1 mo
  Time to response, median: 2.8 mo
  Time to response, range: 1.2-13.2 mo
[2]; Grade 3-4
  Treatment-related adverse events: Any event: 47 (17.6) n (%)
[2]; in vivo
  Not continuing in the treatment period: Study drug toxicity: 27 (10.1) n (%)
  Treatment-related AEs leading to discontinuation of study drug: 9.7%
  Treatment-related adverse events leading to discontinuation: Adrenal insufficiency: 1 (0.4) n (%)
  Treatment-related adverse events leading to discontinuation: Alanine aminotransferase increased: 5 (1.9) n (%)
  Treatment-related adverse events leading to discontinuation: Aphasia: 1 (0.4) n (%)
  Treatment-related adverse events leading to discontinuation: Aspartate aminotransferase increased: 5 (1.9) n (%)
  Treatment-related adverse events leading to discontinuation: Cholestasis: 1 (0.4) n (%)
  Treatment-related adverse events leading to discontinuation: Colitis: 2 (0.7) n (%)
  Treatment-related adverse events leading to discontinuation: Confused state: 1 (0.4) n (%)
  Treatment-related adverse events leading to discontinuation: Hypersensitivity: 1 (0.4) n (%)
  Treatment-related adverse events leading to discontinuation: Interstitial lung disease: 1 (0.4) n (%)
  Treatment-related adverse events leading to discontinuation: Multiple organ dysfunction: 1 (0.4) n (%)
  Treatment-related adverse events leading to discontinuation: Nausea: 1 (0.4) n (%)
  Treatment-related adverse events leading to discontinuation: Pericardial effusion malignant: 1 (0.4) n (%)
  Treatment-related adverse events leading to discontinuation: Pneumonitis: 3 (1.1) n (%)
  Treatment-related adverse events leading to discontinuation: Rash: 1 (0.4) n (%)
  Treatment-related adverse events leading to discontinuation: Rash maculopapular: 1 (0.4) n (%)
  Treatment-related adverse events leading to discontinuation: Rash papular: 1 (0.4) n (%)
  Treatment-related adverse events leading to discontinuation: Stevens-Johnson syndrome: 1 (0.4) n (%)
  Treatment-related adverse events leading to discontinuation: Transaminases increased: 1 (0.4) n (%)
  Treatment-related adverse events: Any event: 190 (71.2) n (%)
  Treatment-related adverse events: Leukopenia: 0 n (%)
  Treatment-related adverse events: Neutropenia: 0 n (%)
  Treatment-related adverse events: Neutrophil count decreased: 1 (0.4) n (%)
  Treatment-related serious adverse events: Anemia: 0 n (%)
  Treatment-related serious adverse events: Aspartate aminotransferase increased: 6 (2.2) n (%)
  Treatment-related serious adverse events: Febrile neutropenia: 0 n (%)
  Treatment-related serious adverse events: Thrombocytopenia: 0 n (%)

— patent US20250059610A1, “METHODS OF TREATING TUMOR” (priority 2017, published 2025)
